# Where “and” joins values, the source holds several entries; their conditions need not be identical. Identical values can stand only once.
# Test system: KRAS patient-derived spheroids with HUVEC/MSC, viability
# Assay: Anticancer human tumor 941728-121-R-J1-PDC patient-derived lung adenocarcinoma cell line growth inhibition [KRAS2]
# Conditions: for viability, T/C: stronger effect = lower value
# Description: Multicellular complex tumor spheroid response to RAS pathway inhibitors in combination with a targeted agents in patient-derived cell lines with oncogenic KRAS variants from multiple cancer types
# A high-throughput screen of multi-cell type tumor spheroids was designed to identify active combinations of targeted small molecules and KRAS pathway inhibitors. Complex spheroids include a stromal component modeled by human endothelial cells (HUVEC) and fibroblasts modeled by human mesenchymal stem cells (MSCs). The concentration ranges selected for each drug and investigational agent were based upon clinically achievable concentrations if the clinical Cmax of the agent was known.
# Compounds. The drugs and investigational agents: BI-3406 (NSC825286), BAY-293 (NSC824723), batoprotafib (TNO155; NSC825523), sotorasib (AMG 510; NSC818433), MRTX1257 (NSC819558), elimusertib (BAY 1895344; NSC800525), molibresib (GSK525762; NSC774829), temuterkib (LY3214996; NSC803410), venetoclax (NSC766270), alisertib (NSC759677), olaparib (NSC753686), talazoparib (NSC767125), erdafitinib (NSC781556), ipatasertib (NSC767898), cabozantinib (NSC761068), nintedanib (NSC756659), abemaciclib (NSC768073), docetaxel (NSC628503), trametinib (NSC758246), and sapanisertib (NSC764658) were obtained from the National Cancer Institute (NCI) Developmental Therapeutics Program Chemical Repository. The FDA-approved anticancer drug set is available from the Developmental Therapeutics Program. […] The stock solutions were prepared in dimethyl sulfoxide (DMSO, Sigma-Aldrich, St. Louis, MO, cat. D2650) at 800-fold the tested concentration and stored at -70 degrees C prior to their use. All drugs and investigational agents were tested over a range starting from a high concentration at or near the clinical Cmax and decreasing in half-log increments. If the clinical Cmax for an agent had not been determined, the highest concentration tested was 10 microM.
# Cell Culture. All cells were maintained in an incubator at 37 degrees C and 5% CO2 with 95% humidity. The PDC lines were cultured according to standard operating procedures established by the NCI PDMR (https://pdmr.cancer.gov/sops/default.htm). Briefly, all PDCs were thawed and cultured in Matrigel-coated flasks prepared with a working solution of 1X Ham's F-12 nutrient mix, without supplementation (Invitrogen, Waltham, MA, cat. 11765054), 100 U/mL penicillin-streptomycin (Invitrogen, cat. 15140122), and 2.5% Matrigel (Corning Inc., Corning, NY, cat. 354248) for the first three passages. All PDCs were cultured in complete DMEM/F-12 media containing advanced DMEM/F-12 (Invitrogen, cat. 12634028), 4.9% defined fetal bovine serum, heat inactivated (HyClone Laboratories Inc., Logan, UT, cat. SH30070.03HI), 389 ng/mL hydrocortisone (Sigma-Aldrich, cat. H4001), 9.7 ng/mL human EGF recombinant protein (Invitrogen, cat. PHG0313), 23.4 microg/mL adenine (Sigma-Aldrich, cat. A2786), 97.3 U/mL penicillin-streptomycin (Invitrogen, cat. 15140122), 1.9 mM L-glutamine (Invitrogen, cat. 25030081), and 9.7 microM Y-27632 dihydrochloride (Tocris Bioscience, Bristol, United Kingdom, cat. 1254). The PDCs were cultured in complete DMEM/F12 media without 9.7 microM Y-27632 dihydrochloride for at least two passages prior to the screen. The established cell line HOP-62 was cultured in RPMI 1640 medium, HEPES (Invitrogen, cat. 22400105) with 10% defined fetal bovine serum (HyClone Laboratories Inc., cat. SH30070.03) and 2 mM L-glutamine (Invitrogen, cat. 25030081). The pooled donor HUVEC were cultured in endothelial cell growth medium 2 (PromoCell, Heidelberg, Germany, cat. C-22011) and the hMSC were cultured in mesenchymal stem cell growth medium 2 (PromoCell, cat. C-28009). For all experiments, HUVEC and hMSC were used at passages </=5, while the malignant cell lines were used at passages </=15. […]
# [1] = curve of first compound, second compound 0.1 µM
# [2] = curve of first compound, second compound 0.316 µM
# [3] = curve of first compound, second compound 1 µM
# [4] = curve of first compound, second compound 3.16 µM
# [5] = curve of first compound, second compound 10 µM
# [6] = second compound 0.1 µM, first compound 0.000316 µM
# [7] = second compound 0.1 µM, first compound 0.001 µM
# [8] = second compound 0.1 µM, first compound 0.00316 µM
# [9] = second compound 0.1 µM, first compound 0.01 µM
# [10] = second compound 0.1 µM, first compound 0.0316 µM
# [11] = second compound 0.1 µM, first compound 0.1 µM
# [12] = second compound 0.316 µM, first compound 0.000316 µM
# [13] = second compound 0.316 µM, first compound 0.001 µM
# [14] = second compound 0.316 µM, first compound 0.00316 µM
# [15] = second compound 0.316 µM, first compound 0.01 µM
# [16] = second compound 0.316 µM, first compound 0.0316 µM
# [17] = second compound 0.316 µM, first compound 0.1 µM
# [18] = second compound 1 µM, first compound 0.000316 µM
# [19] = second compound 1 µM, first compound 0.001 µM
# [20] = second compound 1 µM, first compound 0.00316 µM
# [21] = second compound 1 µM, first compound 0.01 µM
# [22] = second compound 1 µM, first compound 0.0316 µM
# [23] = second compound 1 µM, first compound 0.1 µM
# [24] = second compound 3.16 µM, first compound 0.000316 µM
# [25] = second compound 3.16 µM, first compound 0.001 µM
# [26] = second compound 3.16 µM, first compound 0.00316 µM
# [27] = second compound 3.16 µM, first compound 0.01 µM
# [28] = second compound 3.16 µM, first compound 0.0316 µM
# [29] = second compound 3.16 µM, first compound 0.1 µM
# [30] = second compound 10 µM, first compound 0.0316 µM
# [31] = second compound 10 µM, first compound 0.1 µM
# 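Note: spheroids exposed to agents for seven days before readout.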
structure (smiles),measurement,setting,value
CN(C)C/C=C/C(=O)Nc1cc2c(Nc3ccc(F)c(Cl)c3)ncnc2cc1O[C@H]1CCOC1 + COc1cc2nc(C)nc(NC(C)c3cc(N)cc(C(F)(F)F)c3)c2cc1OC1CCOC1,IC50,[1],0.885 nM
same,IC50,[2],< 0.316 nM
same,IC50,[3],< 0.316 nM
same,IC50,[4],< 0.316 nM
same,IC50,[5],< 0.316 nM
same,"viability, T/C",[6],60.5%
same,"viability, T/C",[7],50.3%
same,"viability, T/C",[8],42.9%
same,"viability, T/C",[9],44.4%
same,"viability, T/C",[10],43.4%
same,"viability, T/C",[11],49.3%
same,"viability, T/C",[12],37.2%
same,"viability, T/C",[13],32.5%
same,"viability, T/C",[14],32.5%
same,"viability, T/C",[15],30.5%
same,"viability, T/C",[16],31.1%
same,"viability, T/C",[17],36.4%
same,"viability, T/C",[18],40.6%
same,"viability, T/C",[19],34.3%
same,"viability, T/C",[20],28.9%
same,"viability, T/C",[21],34.3%
same,"viability, T/C",[22],33.3%
same,"viability, T/C",[23],34.4%
same,"viability, T/C",[24],20.1%
same,"viability, T/C",[25],20.4%
same,"viability, T/C",[26],18.3%
same,"viability, T/C",[27],15.4%
same,"viability, T/C",[28],14.8%
same,"viability, T/C",[29],15.8%
same,"viability, T/C","second compound 10 µM, first compound 0.000316 µM",19.4%
same,"viability, T/C","second compound 10 µM, first compound 0.001 µM",15.2%
same,"viability, T/C","second compound 10 µM, first compound 0.00316 µM",16%
same,"viability, T/C","second compound 10 µM, first compound 0.01 µM",14.6%
same,"viability, T/C",[30],14.7%
same,"viability, T/C",[31],16.4%
CC1OCC2(CCN(c3cnc(Sc4ccnc(N)c4Cl)c(N)n3)CC2)C1N (stereo unspecified),"viability, T/C",compound 0.0316 µM,71% and 57.9% and 63.9%
same,"viability, T/C",compound 0.1 µM,48.3% [middle of 19 runs]
same,"viability, T/C",compound 0.316 µM,38% [middle of 19 runs]
same,"viability, T/C",compound 3.16 µM,29.8% [middle of 20 runs]
same,IC50,"compound alone, run of 07/19/2021",< 100 nM
same,IC50,curve of compound,141 nM [middle of 5 runs]
CC1(C)CCC(CN2CCN(c3ccc(C(=O)NS(=O)(=O)c4ccc(NCC5CCOCC5)c([N+](=O)[O-])c4)c(Oc4cnc5[nH]ccc5c4)c3)CC2)=C(c2ccc(Cl)cc2)C1,"viability, T/C",compound 1 µM,51.1% [middle of 5 runs]
same,"viability, T/C",compound 3.16 µM,11.1% [middle of 5 runs]
same,"viability, T/C",compound 10 µM,5.66% [middle of 5 runs]
same,IC50,curve of compound,918 nM [middle of 5 runs]
CC(C)NCC(C(=O)N1CCN(c2ncnc3c2C(C)CC3O)CC1)c1ccc(Cl)cc1 (stereo unspecified) + COc1cc2nc(C)nc(NC(C)c3cc(N)cc(C(F)(F)F)c3)c2cc1OC1CCOC1,IC50,[1],32.7 nM
same,IC50,[2],< 31.6 nM
same,IC50,[3],< 31.6 nM
same,IC50,[4],< 31.6 nM
same,IC50,[5],< 31.6 nM
same,"viability, T/C",[10],49.7%
same,"viability, T/C",[11],46.5%
same,"viability, T/C","second compound 0.1 µM, first compound 0.316 µM",34.1%
same,"viability, T/C","second compound 0.1 µM, first compound 1 µM",23.4%
same,"viability, T/C","second compound 0.1 µM, first compound 3.16 µM",11.8%
same,"viability, T/C","second compound 0.1 µM, first compound 10 µM",8.21%
same,"viability, T/C",[16],44%
same,"viability, T/C",[17],41.4%
same,"viability, T/C","second compound 0.316 µM, first compound 0.316 µM",32.5%
same,"viability, T/C","second compound 0.316 µM, first compound 1 µM",21.5%
same,"viability, T/C","second compound 0.316 µM, first compound 3.16 µM",10.3%
same,"viability, T/C","second compound 0.316 µM, first compound 10 µM",11.1%
same,"viability, T/C",[22],40.4%
same,"viability, T/C",[23],34.8%
same,"viability, T/C","second compound 1 µM, first compound 0.316 µM",29.7%
same,"viability, T/C","second compound 1 µM, first compound 1 µM",23.1%
same,"viability, T/C","second compound 1 µM, first compound 3.16 µM",10.3%
same,"viability, T/C","second compound 1 µM, first compound 10 µM",1.68%
same,"viability, T/C",[28],35.1%
same,"viability, T/C",[29],35.2%
same,"viability, T/C","second compound 3.16 µM, first compound 0.316 µM",36.7%
same,"viability, T/C","second compound 3.16 µM, first compound 1 µM",13%
same,"viability, T/C","second compound 3.16 µM, first compound 3.16 µM",5.96%
same,"viability, T/C","second compound 3.16 µM, first compound 10 µM",5.42%
same,"viability, T/C",[30],13.4%
same,"viability, T/C",[31],9.39%
same,"viability, T/C","second compound 10 µM, first compound 0.316 µM",3.04%
same,"viability, T/C","second compound 10 µM, first compound 1 µM",1.04%
same,"viability, T/C","second compound 10 µM, first compound 3.16 µM",0.52%
same,"viability, T/C","second compound 10 µM, first compound 10 µM",0.66%
CC(C)n1nc(-c2ccc3oc(N)nc3c2)c2c(N)ncnc21,"viability, T/C",compound 0.000316 µM,90% [middle of 5 runs]
CN(C)C/C=C/C(=O)Nc1cc2c(Nc3ccc(F)c(Cl)c3)ncnc2cc1O[C@H]1CCOC1 + C=CC(=O)N1CCN(c2nc(OCC3CCCN3C)nc3c2CCN(c2cccc4cccc(C)c24)C3)CC1CC#N,IC50,"curve of first compound, second compound 0.0316 µM",< 0.316 nM
same,IC50,[1],< 0.316 nM
same,IC50,[2],< 0.316 nM
same,IC50,[3],< 0.316 nM
same,IC50,[4],< 0.316 nM
same,"viability, T/C","second compound 0.0316 µM, first compound 0.000316 µM",22.7%
same,"viability, T/C","second compound 0.0316 µM, first compound 0.001 µM",22.4%
same,"viability, T/C","second compound 0.0316 µM, first compound 0.00316 µM",22.2%
same,"viability, T/C","second compound 0.0316 µM, first compound 0.01 µM",23.3%
same,"viability, T/C","second compound 0.0316 µM, first compound 0.0316 µM",20.5%
same,"viability, T/C","second compound 0.0316 µM, first compound 0.1 µM",20.6%
same,"viability, T/C",[6],21.3%
same,"viability, T/C",[7],19.3%
same,"viability, T/C",[8],18.8%
same,"viability, T/C",[9],20.1%
same,"viability, T/C",[10],20.4%
same,"viability, T/C",[11],18.6%
same,"viability, T/C",[12],21.1%
same,"viability, T/C",[13],20.9%
same,"viability, T/C",[14],21.4%
same,"viability, T/C",[15],21.5%
same,"viability, T/C",[16],20.5%
same,"viability, T/C",[17],18.3%
same,"viability, T/C",[18],21.1%
same,"viability, T/C",[19],21.2%
same,"viability, T/C",[20],20.9%
same,"viability, T/C",[21],19.1%
same,"viability, T/C",[22],19.2%
same,"viability, T/C",[23],21.2%
same,"viability, T/C",[24],1.16%
same,"viability, T/C",[25],0.2%
same,"viability, T/C",[26],0.46%
same,"viability, T/C",[27],0.19%
same,"viability, T/C",[28],0.45%
same,"viability, T/C",[29],1.8%

# Source: PubChem BioAssay AID1963862 (Molecular Pharmacology Branch, DTP, NCI, 2024)
